Results taken from patent US4316894A, “Antibiotic SF-1130-x3 3 substance and production and use thereof” (Meiji Seika Kaisha, Ltd., priority 1979, dated 1982).

Key:
[1] = Suppression of elevation of blood sugar level in mice given starch or sucrose orally; assay type: in vivo, ICR-strain male mice; details: test drug 10 mg/kg oral (dose of the x1 + x2 mixture not stated), 30 minutes after administration, ICR male mice, six per group
Procedure: The test was carried out by the following procedure: Test animal was ICR-strain male mice (six mice per group, weighing 25 g in average) which had been abstained from water for 20 hours. 1 g/kg of starch or 2.5 g/kg of sucrose was orally given to the mice. At the same time, 10 mg/kg of the compound of this invention or 10 mg/kg of deoxynojirimycin as a comparative drug was orally administered to these mice. 30 minutes after the administration, the glucose level in blood was measured.

α-glucosidase = assay: Determination of the activity of inhibiting α-glucosidase; assay type: biochemical, pig; details: measured in the same way as above; read-out: ID50 values (comparison substances, measured in the same way as above)
Text: The compound of this invention is useful for highly inhibiting the enzymatic reaction of glucosidase and particularly for inhibiting the enzymatic reaction of α-glucosidase as well as the enzymatic reaction of saccharase. Such the inhibitory activity of the compound of this invention may be estimated according to the following procedure with the α-glucosidase prepared from ileum mucosa of pig as disclosed in the literature "Acta Chem. Scand." vol. 12, page 1997 (1958).
(1) Determination of the activity of inhibiting α-glucosidase. There are prepared the following four solutions:
Solution A: A solution of the enzyme (α-glucosidase) having appropriately been diluted to a desired enzyme concentration with 0.1 M maleate buffered solution (pH 6.0)
Solution B: 0.1 M maleate buffered solution (pH 6.0)
Solution C: An aqueous solution of 0.014 M p-nitrophenyl-α-D-glycoside (as the substrate) in water
Solution D: An aqueous solution of 0.1 M sodium carbonate in water […]
In the above assay, degree (%) of inhibition for the inhibitor sample to the α-glucosidase is calculated according to the following equation: […]

IC50 (α-glucosidase) | Structure (SMILES) | Blood sugar level, groups receiving starch ([1]; starch 1 g/kg oral) | Blood sugar level, groups receiving sucrose ([1]; sucrose 2.5 g/kg oral)
 | OC[C@H]1NC[C@H](O)[C@@H](O)[C@@H]1O [Deoxynojirimycin] | 101 ± 22.9 mg/dL | 93 ± 15.4 mg/dL
360 µM | OC[C@H]1NC(O)[C@H](O)[C@@H](O)[C@@H]1O (stereo partly drawn) [nojirimycin] |  | 
